Source: ChEMBL document CHEMBL4033731, “Structural development of 1,2,3,4-tetrahydroisoquinoline-type positive allosteric modulators of prostacyclin receptor (IPPAMs) to improve metabolic stability, and investigation of metabolic fate” (Bioorg Med Chem Lett, 2017)
Active and inactive are the calls of the source. The rule behind the calls is not given here.

Key:
[1] = Drug level in human hepatic microsomes treated with 10 uM of 2-((1-tert-butyl-1H-tetrazol-5-yl)(3,4-dihydroisoquinolin-2(1H)-yl)methyl)-6-fluorophenol assessed as drug formation at 10 uM incubated for 90 mins at 37 degC by HPLC-MS/MS method relative to control; assay type: ADME, Liver, Microsome; conditions: 1.5 h
[2] = Half life in human hepatic microsomes at 0.1 uM by HPLC-MS/MS method; assay type: ADME, Microsome; conditions: liver microsomes
[3] = target: Prostacyclin receptor (Homo sapiens) (UniProt P43119); assay: Positive allosteric modulator activity at human prostacyclin receptor expressed in CHO-K1 cells assessed as compound concentration needed to shift agonist concentration response curve leftward by 2-fold by measuring CAMP accumulation; assay type: cell-based
Prostacyclin receptor (Homo sapiens), sequence (P43119 whole entry): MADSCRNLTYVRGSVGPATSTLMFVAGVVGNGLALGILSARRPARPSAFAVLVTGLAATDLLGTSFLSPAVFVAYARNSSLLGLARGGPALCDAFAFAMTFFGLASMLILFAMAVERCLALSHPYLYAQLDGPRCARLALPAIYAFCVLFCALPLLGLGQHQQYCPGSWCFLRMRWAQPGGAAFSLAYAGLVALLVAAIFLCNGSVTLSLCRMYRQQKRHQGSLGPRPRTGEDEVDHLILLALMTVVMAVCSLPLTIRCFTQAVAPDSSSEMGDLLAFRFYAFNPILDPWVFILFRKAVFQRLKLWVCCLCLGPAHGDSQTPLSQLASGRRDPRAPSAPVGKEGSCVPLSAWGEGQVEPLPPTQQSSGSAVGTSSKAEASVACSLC

[4] = target: Prostacyclin receptor (Homo sapiens) (UniProt P43119); assay: Positive allosteric modulator activity at human prostacyclin receptor expressed in CHO-K1 cells assessed as compound concentration needed to shift agonist concentration response curve leftward by 2-fold by measuring CAMP accumulation at 100 uM; assay type: cell-based
[5] = Drug metabolism in human hepatic microsomes assessed as peak area for parent compound at 10 uM incubated for 90 mins at 37 degC by HPLC-MS/MS method relative to control; assay type: ADME, Microsome; conditions: liver microsomes, read-out: Stability
[6] = Drug metabolism in human hepatic microsomes assessed as 2-((3,4-dihydroisoquinolin-2(1H)-yl)(1-(1-hydroxy-2-methylpropan-2-yl)-1H-tetrazol-5-yl)methyl)-6-fluorophenol formation at 10 uM incubated for 90 mins at 37 degC by HPLC-MS/MS method relative to control; assay type: ADME, Liver, Microsome; conditions: 1.5 h
[7] = Drug metabolism in human hepatic microsomes assessed as 2-((1-tert-butyl-1H-tetrazol-5-yl)(3,4-dihydroisoquinolin-2(1H)-yl)methyl)-4-fluorophenol formation at 10 uM incubated for 90 mins at 37 degC by HPLC-MS/MS method relative to control; assay type: ADME, Liver, Microsome; conditions: 1.5 h

Compound	half-life at 0.1 µM [2] [min]	Activity [3]	also measured
CC(C)(CO)n1nnnc1C(c1cccc(F)c1O)N1CCc2ccccc2C1 (centres undefined)			Drug metabolism [1]: Metabolite_Detected
CC(C)(C)n1nnnc1C(c1cccc(O)c1O)N1CCc2ccccc2C1 (centres undefined)			Drug metabolism [1]: Metabolite_Detected
COc1ccccc1C(c1nnnn1C(C)(C)C)N1CCC2CCCCC2C1 (centres undefined)	3	6.2 µM	
CC(C)(C)n1nnnc1C(c1ccccc1)N1CCc2ccccc2C1 (centres undefined)	6	6.9 µM	
COc1ccccc1C(c1nnnn1C(C)(C)C)N1CCc2ccccc2C1 (centres undefined)	8	4.3 µM	
CC(C)(C)NC(=O)C(c1ccccc1)N1CCc2ccccc2C1 (centres undefined)	6	inactive	Activity [4]: inactive
CC(C)(C)n1nnnc1C(c1cccc(F)c1O)N1CCc2ccccc2C1 (centres undefined)	21	8.2 µM	remaining at 1.5 h, 10 µM [5]: 1.04%; Drug metabolism [6]: Metabolite_Detected; Drug metabolism [7]: Metabolite_Detected
CC(C)(C)n1nnnc1C(c1cc(F)ccc1O)N1CCc2ccccc2C1 (centres undefined)	5	12 µM	
COc1ccccc1C(c1nnnn1C(C)(C)C)N1CCc2ccc(F)cc2C1 (centres undefined)	6	15.2 µM	

Second part, led by results:

half-life at 0.1 µM [2] [min]	Activity [3]	Compound	also measured
3	4.7 µM	CC(C)(C)n1nnnc1C(c1ccccc1F)N1CCc2ccccc2C1 (centres undefined)	
7	1.4 µM	CC(C)(C)n1nnnc1C(c1ccccc1O)N1CCc2ccccc2C1 (centres undefined)	
